Melting point and IC50 data for 23 compounds are collected here from patent US20090156646A1, “PYRIDYLPHENOL COMPOUND AND USE THEREOF” (TAKEDA PHARMACEUTICAL COMPANY LIMITED, priority 2005, published 2009).

pIC50: −log10 of the molar value. A value given as a limit tells only on which side of the number the result lay.

In series [1] the target is T1, human metastin receptor hOT7T175 (Homo sapiens, UniProt Q969F8, L364H).
T1 construct: encoding the entire length of human metastin receptor hOT7T175; expressed in transfected cells; host or cells: CHO/dhFr- cells (ATCC #CRL-9096) stably transfected with pAKKO-hOT7T175; clone h175-16 was used as whole cells for FLIPR
T1 sequence (Q969F8 whole entry L364H): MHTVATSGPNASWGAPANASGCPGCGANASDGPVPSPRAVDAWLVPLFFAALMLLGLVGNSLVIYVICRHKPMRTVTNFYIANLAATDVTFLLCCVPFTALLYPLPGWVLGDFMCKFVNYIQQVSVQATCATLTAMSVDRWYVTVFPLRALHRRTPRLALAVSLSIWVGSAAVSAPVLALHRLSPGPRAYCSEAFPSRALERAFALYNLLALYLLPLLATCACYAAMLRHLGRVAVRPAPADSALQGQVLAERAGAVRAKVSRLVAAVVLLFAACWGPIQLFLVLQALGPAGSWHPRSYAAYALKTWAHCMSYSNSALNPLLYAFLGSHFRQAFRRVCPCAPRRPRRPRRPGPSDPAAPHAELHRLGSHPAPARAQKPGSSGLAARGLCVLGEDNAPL
Description: binding inhibiting activity: 125I-metastin (40-54) binding to cell membrane fraction of h175 KB34 cells. Conditions: room temperature 60 minutes, read-out: binding inhibiting activity, represented by the IC50 value. The essentials: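 The assay buffer (pH 7.4 Tris with magnesium acetate, EGTA and a protease-inhibitor cocktail) was used either plain or supplemented with 1 mg/ml BSA. The radioligand was 125I-labelled human metastin (40-54). The receptor source was a 250-fold diluted membrane fraction of the stable CHO/dhfr− line h175 KB34.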

Consider `CN(C)CCNC(=O)c1cccc(-c2cc(-c3ccc(F)cc3O)nc(NC(=O)c3ccco3)c2C#N)c1.Cl` [Example 309, N-[3-cyano-4-[3-({[2-(dimethylamino)ethyl]amino}carbonyl)phenyl]-6-(4-fluoro-2-hydroxyphenyl)pyridin-2-yl]-2-furamide hydrochloride], for which the melting point lay in the range of 200 to 204 °C. In addition, the pIC50 in series [1] was at least 5.00.

Take `CN(C)[C@@H]1CCCC[C@@H]1C(=O)Nc1cccc(-c2cc(-c3ccc(F)cc3O)nc(NC(=O)c3ccco3)c2C#N)c1.Cl` [Example 286, N-{3-cyano-4-[3-({[(1S,2R)-2-(dimethylamino)cyclohexyl]carbonyl}amino)phenyl]-6-(4-fluoro-2-hydroxyphenyl)pyridin-2-yl}-2-furamide hydrochloride]: the melting point fell in the range of 205 to 207 °C. In addition, in series [1], the pIC50 was at least 5.00.

In the case of `CC(C)(CN)CNC(=O)c1cccc(-c2cc(-c3ccc(Cl)cc3O)nc(NC(=O)c3ccco3)c2C#N)c1.Cl` [Example 85, N-[4-(3-{[(3-amino-2,2-dimethylpropyl)amino]carbonyl}phenyl)-6-(4-chloro-2-hydroxyphenyl)-3-cyanopyridin-2-yl]-2-furamide hydrochloride], the melting point lay in the range of 241 to 244 °C. Besides, in series [1], the pIC50 is at least 5.00.

Regarding `Cl.N#Cc1c(-c2cccc(NC(=O)CCN)c2)cc(-c2ccc(F)cc2O)nc1NC(=O)c1ccco1` [Example 68, N-{4-[3-(β-alanylamino)phenyl]-3-cyano-6-(4-fluoro-2-hydroxyphenyl)pyridin-2-yl}-2-furamide hydrochloride], the melting point was 269 to 270 °C. Also, in series [1], the pIC50 was at least 5.00.

`CCCC(N)CC(=O)Nc1cccc(-c2cc(-c3ccc(F)cc3O)nc(NC(=O)c3ccco3)c2C#N)c1.Cl` (stereo not shown) [Example 265, N-[4-{3-[(3-aminohexanoyl)amino]phenyl}-3-cyano-6-(4-fluoro-2-hydroxyphenyl)pyridin-2-yl]-2-furamide hydrochloride] yielded a melting point of 214 to 217 °C. In series [1], the pIC50 was at least 5.00.

Compound `CC(C)(CN)CNC(=O)c1cccc(-c2cc(-c3ccc(F)cc3O)nc(NC(=O)c3ccco3)c2C#N)c1.Cl` [Example 77, N-[4-(3-{[(3-amino-2,2-dimethylpropyl)amino]carbonyl}phenyl)-3-cyano-6-(4-fluoro-2-hydroxyphenyl)pyridin-2-yl]-2-furamide hydrochloride] showed a melting point of 256 to 257 °C. For the same compound, the pIC50 in series [1] was at least 5.00.

Regarding `Cl.N#Cc1c(-c2cccc(C(=O)NCC3CCCCN3)c2)cc(-c2ccc(Cl)cc2O)nc1NC(=O)c1ccco1` (stereo not shown) [Example 84, N-[6-(4-chloro-2-hydroxyphenyl)-3-cyano-4-(3-{[(piperidin-2-ylmethyl)amino]carbonyl}phenyl)pyridin-2-yl]-2-furamide hydrochloride], the melting point lay within 222 to 226 °C. Moreover, the pIC50 in series [1] was at least 5.00.

`Cc1ccc(-c2cc(-c3cccc(NC(=O)CCN)c3)c(C#N)c(NC(=O)c3cccs3)n2)c(O)c1.Cl` [Example 57, N-{4-[3-(β-alanylamino)phenyl]-3-cyano-6-(2-hydroxy-4-methylphenyl)pyridin-2-yl}thiophene-2-carboxamide hydrochloride]: the melting point was in the range of 204 to 210 °C. In addition, in series [1], the pIC50 is at least 5.00.

As for `Cl.N#Cc1c(-c2cccc(NC(=O)CCN)c2)cc(-c2ccc(C(F)(F)F)cc2O)nc1NC(=O)c1cccs1` [Example 64, N-{4-[3-(β-alanylamino)phenyl]-3-cyano-6-[2-hydroxy-4-(trifluoromethyl)phenyl]pyridin-2-yl}thiophene-2-carboxamide hydrochloride], the melting point fell in the range of 209 to 216 °C. Moreover, in series [1], the negative logarithm of the IC50 (pIC50) was at least 5.00.

Compound `Cl.N#Cc1c(-c2cccc(C(=O)NCCCn3ccnc3)c2)cc(-c2ccc(Cl)cc2O)nc1NC(=O)c1nccs1` [Example 250, N-{6-(4-chloro-2-hydroxyphenyl)-3-cyano-4-[3-({[3-(1H-imidazol-1-yl)propyl]amino}carbonyl)phenyl]pyridin-2-yl}-1,3-thiazole-2-carboxamide hydrochloride] came in with a melting point of 208 to 212 °C. In addition, the pIC50 in series [1] is at least 5.00.

The compound `C[C@@H](N)C(=O)Nc1cccc(-c2cc(-c3ccc(Cl)cc3O)nc(NC(=O)c3ccco3)c2C#N)c1.Cl` [Example 237, N-[4-[3-(alanylamino)phenyl]-6-(4-chloro-2-hydroxyphenyl)-3-cyanopyridin-2-yl]-2-furamide hydrochloride] had a melting point of 210 to 216 °C. Also, the pIC50 in series [1] was at least 5.00.

Compound `CCN(CC)CCC(=O)Nc1cccc(-c2cc(-c3ccc(F)cc3O)nc(NC(=O)c3ccco3)c2C#N)c1.Cl` [Example 328, N-[3-cyano-4-{3-[(N,N-diethyl-β-alanyl)amino]phenyl}-6-(4-fluoro-2-hydroxyphenyl)pyridin-2-yl]-2-furamide hydrochloride] had a melting point of 209 to 213 °C. In series [1], the pIC50 is at least 5.00.

`Cl.N#Cc1c(-c2cccc(NC(=O)C3(N)CCC3)c2)cc(-c2ccc(Cl)cc2O)nc1NC(=O)c1ccco1` [Example 65, N-[4-(3-{[(1-aminocyclobutyl)carbonyl]amino}phenyl)-6-(4-chloro-2-hydroxyphenyl)-3-cyanopyridin-2-yl]-2-furamide hydrochloride] registered a melting point of 195 to 200 °C. Also, the pIC50 in series [1] is at least 5.00.

The compound `Cl.N#Cc1c(-c2cccc(CNC(=O)CCN)c2)cc(-c2ccccc2O)nc1NC(=O)c1cccs1` [Example 44, N-[4-{3-[(β-alanylamino)methyl]phenyl}-3-cyano-6-(2-hydroxyphenyl)pyridin-2-yl]thiophene-2-carboxamide hydrochloride] showed a melting point of 173 to 180 °C. Moreover, the pIC50 in series [1] is at least 5.00.

Regarding `Cl.N#Cc1c(-c2cccc(NC(=O)[C@@H]3C[C@@H](O)CN3)c2)cc(-c2ccc(F)cc2O)nc1NC(=O)c1ccco1` [Example 298, (4R)—N-{3-[3-cyano-6-(4-fluoro-2-hydroxyphenyl)-2-(2-furoylamino)pyridin-4-yl]phenyl}-4-hydroxy-L-prolinamide hydrochloride], the melting point is 260 to 262 °C. For the same compound, the pIC50 in series [1] was at least 5.00.

`Cl.N#Cc1c(-c2cccc(NC(=O)CCCn3ccnc3)c2)cc(-c2ccc(Cl)cc2O)nc1NC(=O)c1ccco1` [Example 242, N-[6-(4-chloro-2-hydroxyphenyl)-3-cyano-4-(3-{[4-(1H-imidazole-1-yl)butanoyl]amino}phenyl)pyridin-2-yl]-2-furamide hydrochloride] showed a melting point of 166 to 170 °C. Besides, in series [1], the pIC50 was at least 5.00.

Compound `CC(C)(CN)CNC(=O)c1cccc(-c2cc(-c3ccc(F)cc3O)nc(NC(=O)c3cccs3)c2C#N)c1.Cl` [Example 80, N-[4-(3-{[(3-amino-2,2-dimethylpropyl)amino]carbonyl}phenyl)-3-cyano-6-(4-fluoro-2-hydroxyphenyl)pyridin-2-yl]thiophene-2-carboxamide hydrochloride] showed a melting point of 265 to 268 °C. Besides, the pIC50 in series [1] is at least 5.00.

Compound `Cl.N#Cc1c(-c2cccc(C(=O)NCCN)c2)cc(-c2ccc(Cl)cc2O)nc1NC(=O)c1ccco1` [Example 86, N-[4-(3-{[(2-aminoethyl)amino]carbonyl}phenyl)-6-(4-chloro-2-hydroxyphenyl)-3-cyanopyridin-2-yl]-2-furamide hydrochloride] showed a melting point of 252 to 255 °C. Moreover, the pIC50 in series [1] is at least 5.00.

`Cl.N#Cc1c(-c2cccc(C(=O)NCCCn3ccnc3)c2)cc(-c2ccc(Cl)cc2O)nc1NC(=O)c1ccco1` [Example 83, N-{6-(4-chloro-2-hydroxyphenyl)-3-cyano-4-[3-({[3-(1H-imidazol-1-yl)propyl]amino}carbonyl)phenyl]pyridin-2-yl}-2-furamide hydrochloride] showed a melting point of 182 to 184 °C. Moreover, the pIC50 in series [1] is at least 5.00.

As for `CC(N)CC(=O)Nc1cccc(-c2cc(-c3ccc(F)cc3O)nc(NC(=O)c3ccco3)c2C#N)c1.Cl` (stereo not shown) [Example 337, N-[4-{3-[(3-aminobutanoyl)amino]phenyl}-3-cyano-6-(4-fluoro-2-hydroxyphenyl)pyridin-2-yl]-2-furamide hydrochloride], the melting point was in the range of 213 to 215 °C. Also, the negative logarithm of the IC50 (pIC50) in series [1] is at least 5.00.

`Cl.N#Cc1c(-c2cccc(NC(=O)C3(N)CC3)c2)cc(-c2ccc(Cl)cc2O)nc1NC(=O)c1ccco1` [Example 69, N-[4-(3-{[(1-aminocyclopropyl)carbonyl]amino}phenyl)-6-(4-chloro-2-hydroxyphenyl)-3-cyanopyridin-2-yl]-2-furamide hydrochloride] registered a melting point of 190 to 196 °C. Further, the pIC50 in series [1] was at least 5.00.

With `CCCC(CC(=O)Nc1cccc(-c2cc(-c3ccc(F)cc3O)nc(NC(=O)c3ccco3)c2C#N)c1)N(C)C.Cl` (stereo not shown) [Example 285, N-[3-cyano-4-(3-{[3-(dimethylamino)hexanoyl]amino}phenyl)-6-(4-fluoro-2-hydroxyphenyl)pyridin-2-yl]-2-furamide hydrochloride], the melting point is 180 to 182 °C. For the same compound, the pIC50 in series [1] was at least 5.00.

With `CCN(CC)C(C)CC(=O)Nc1cccc(-c2cc(-c3ccc(F)cc3O)nc(NC(=O)c3ccco3)c2C#N)c1.Cl` (stereo not shown) [Example 339, N-[3-cyano-4-(3-{[3-(diethylamino)butanoyl]amino}phenyl)-6-(4-fluoro-2-hydroxyphenyl)pyridin-2-yl]-2-furamide hydrochloride], the melting point is 193 to 195 °C. Also, the pIC50 in series [1] is at least 5.00.
